Where two headings read alike, the source gives them in different places.
Tests used:
carrageenin oedema = test: Carrageenin oedema test for anti-inflammatory activity; assay type: in vivo, Male Wistar rats; settings: rat, per os, aqueous tragacanth suspension, 30 minutes before carrageenin; paw volume 3 hours after carrageenin injection; dose to inhibit the response by 50%; unit assumed
Procedure: Carrageenin oedema test for anti-inflammatory activity
Male Wistar rats weighing 120-150 g were fasted overnight and then received a test compound per os as an aqueous tragacanth suspension. 30 minutes later, inflammation was induced by the subcutaneous injection of 0.05 ml of a 1% carrageenin suspension into the plantar tissue of a hind paw of each rat [Winter et al., Proc. Soc. […] The anti-oedema activity was measured volumetrically, by assessing the response, as calculated from the following equation: […]
where Vo and V represent, respectively, the paw volume immediately before and 3 hours after the carrageenin injection.

pressure-induced pain = test: Pain test for analgesic activity (modified Randall-Selitto, Brewers' yeast inflamed paw pressure); assay type: in vivo, Male Wistar-Imamichi rats; settings: read-out: Analgesic activity ED50
Procedure: Pain test for analgesic activity
This test was conducted according to a modification of the method reported by L. O. Randall and J. J. Selitto in Arch. Int.
Male Wistar-Imamichi rats of 4 weeks of age and weighing 60-90 g were injected with 0.1 ml of a 20% by weight suspension of Brewers' yeast in the right hind paw. […] Each of these was given orally a test compound as an aqueous tragacanth suspension. 1 and 2 hours after administration of the test compound, the pain threshold was determined by observing pain responses (such as struggling or squeaking) when the inflamed or normal paw was subjected to pressure by a machine (Ugo-Basile).

[1] = rat, oral, aqueous tragacanth suspension, pain threshold 1 and 2 hours after administration, effective = at least twice mean pain threshold of controls, Litchfield and Wilcoxon

SMILES | Anti-inflammatory activity ID50 (carrageenin oedema) [mg/kg] | ED50 (pressure-induced pain; [1]) [mg/kg] | ED50 (pressure-induced pain; Rattus norvegicus, po) [mg/kg]
CC(C(=O)O)c1ccc(C=C2CCCCC2=O)cc1 (stereo not drawn) [C, 2-[4-(2-oxocyclohexylidenemethyl)phenyl]propionic acid] | 1.2 | 0.94 | 
COc1ccc2c(c1)c(CC(=O)O)c(C)n2C(=O)c1ccc(Cl)cc1 [B, Indomethacin] | 2.2 |  | 1.6
CC(C(=O)O)c1ccc(C=C2CCCCC2O)cc1 (stereo not drawn) [A, 2-[4-(2-hydroxycyclohexylidenemethyl)phenyl]propionic acid] | 0.98 | 0.35 | 

— patent US4461912A, “Phenylacetic acid derivatives, their preparation and compositions containing them” (Sankyo Company Limited, priority 1981, dated 1984)
